Experimental data as given in patent publication US20220024945A1, “THERAPEUTIC COMPOUNDS AND COMPOSITIONS, AND METHODS OF USE THEREOF” (Genentech, Inc., priority 2017, published 2022).

Key:
[1] = test system: JAK1-dependent STAT6 phosphorylation downstream of IL-13 stimulation, BEAS-2B cells; assay: JAK1 pathway assay in cell lines: P-STAT6 in BEAS-2B cells + IL13; format: cell-based; settings: Homo sapiens, BEAS-2B, 1 h, BEAS-2B human bronchial epithelial cells, 1 hr compound preincubation, read-out: P-STAT6 BEAS2B + IL13 IC50
Experimental: JAK1 Pathway Assay in Cell Lines was Carried Out as Follows:
Inhibitor potency (EC50) was determined in cell-based assays designed to measure JAK1 dependent STAT phosphorylation. As noted above, inhibition of IL-4, IL-13, and IL-9 signaling by blocking the Jak/Stat signaling pathway can alleviate asthmatic symptoms in pre-clinical lung inflammation models (Mathew et al., 2001, J Exp Med 193(9): 1087-1096; Kudlacz et. al., 2008, Eur J. Pharmacol 582(1-3): 154-161).
In one assay approach, TF-1 human erythroleukemia cells obtained from the American Type Culture Collection (ATCC; Manassas, Va.) were used to measure JAK1-dependent STAT6 phosphorylation downstream of IL-13 stimulation. Prior to use in the assays, TF-1 cells were starved of GM-CSF overnight in OptiMEM medium (Life Technologies, Grand Island, N.Y.) supplemented with 0.5% charcoal/dextran stripped fetal bovine serum (FBS), 0.1 mM non-essential amino acids (NEAA), and 1 mM sodium pyruvate. The assays were run in 384-well plates in serum-free OptiMEM medium using 300,000 cells per well. In a second assay approach, BEAS-2B human bronchial epithelial cells obtained from ATCC were plated at 100,000 cells per well of a 96-well plate one day prior to the experiment. The BEAS-2B assay was run in complete growth medium (bronchial epithelial basal medium plus bulletkit; Lonza; Basel, Switzerland).
Test compounds were serially diluted 1:2 in DMSO and then diluted 1:50 in medium just before use. Diluted compounds were added to the cells, for a final DMSO concentration of 0.2%, and incubated for 30 m (for the TF-1 assay) or 1 hr (for the BEAS-2B assay) at 37° C. Then, cells were stimulated with human recombinant cytokine at their respective EC90 concentrations, as previously determined for each individual lot. Cells were stimulated with […] (R&D Systems, Minneapolis, Minn.) for 15 m/at 37° C. The TF-1 cell reactions were stopped by the direct addition of 10× lysis buffer (Cell Signaling Technologies, Danvers, Mass.), whereas the BEAS-2B cell incubations were halted by the removal of medium and addition of 1× lysis buffer. The resultant samples were frozen in the plates at −80° C. Compound mediated inhibition of STAT6 phosphorylation was measured in the cell lysates using MesoScale Discovery (MSD) technology (Gaithersburg, Md.). EC50 values were determined as the concentration of compound required for 50% inhibition of STAT phosphorylation relative to that measured for the DMSO control.

[2] = target: isolated recombinant JAK2 kinase domain (Homo sapiens, UniProt O60674); assay: JAK enzyme assay (Caliper LabChip), JAK2 kinase domain; settings: ATP 25 μM, 0.2 nM JAK2, Morrison tight binding model
Sequence of isolated recombinant JAK2 kinase domain (O60674 849-1124 limits assumed): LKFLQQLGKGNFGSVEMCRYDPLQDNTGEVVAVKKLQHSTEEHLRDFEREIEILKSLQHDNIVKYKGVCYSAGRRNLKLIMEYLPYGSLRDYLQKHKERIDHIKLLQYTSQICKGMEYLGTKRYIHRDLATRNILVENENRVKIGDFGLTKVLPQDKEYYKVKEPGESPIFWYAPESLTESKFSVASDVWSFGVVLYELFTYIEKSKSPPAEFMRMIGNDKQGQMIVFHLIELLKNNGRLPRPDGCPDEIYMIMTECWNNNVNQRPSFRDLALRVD
Experimental: JAK Enzyme Assays were Carried Out as Follows:
The activity of the isolated recombinant JAK1 and JAK2 kinase domain was measured by monitoring phosphorylation of a peptide derived from JAK3 ([sequence] fluorescently labeled on the N-terminus with 5-carboxyfluorescein) using the Caliper LabChip® technology (Caliper Life Sciences, Hopkinton, Mass.). […] Reactions were incubated at 22° C. in 384-well polypropylene microtiter plates for 30 minutes and then stopped by addition of 25 μL of an EDTA containing solution (100 mM HEPES buffer (pH 7.2), 0.015% Brij-35, 150 mM EDTA), resulting in a final EDTA concentration of 50 mM. After termination of the kinase reaction, the proportion of phosphorylated product was determined as a fraction of total peptide substrate using the Caliper LabChip® 3000 according to the manufacturer's specifications.

[3] = target: isolated recombinant JAK1 kinase domain (Homo sapiens, UniProt P23458); assay: JAK enzyme assay (Caliper LabChip), JAK1 kinase domain; format: biochemical; settings: ATP 25 μM; 1.5 nM JAK1; Morrison tight binding model
Sequence of isolated recombinant JAK1 kinase domain (P23458 875-1153 limits assumed): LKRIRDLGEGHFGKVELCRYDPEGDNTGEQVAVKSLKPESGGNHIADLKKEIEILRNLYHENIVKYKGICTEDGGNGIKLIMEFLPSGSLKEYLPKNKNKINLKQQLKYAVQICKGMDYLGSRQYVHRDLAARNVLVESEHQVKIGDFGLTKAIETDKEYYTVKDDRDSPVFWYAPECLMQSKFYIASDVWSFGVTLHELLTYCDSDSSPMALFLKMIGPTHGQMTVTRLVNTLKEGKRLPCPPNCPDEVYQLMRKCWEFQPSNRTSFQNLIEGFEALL

SMILES | Ki [2] [nM] | Ki [3] [nM] | IC50 [1] [nM]
O=C(Nc1cn(Cc2cn(C3CCN([C@@H]4CCOC4)CC3)nn2)nc1-c1cc(SC2CC2)ccc1OC(F)F)c1cnn2cccnc12 (stereo in doubt) [Example 14, N-[3-[5-cyclopropylsulfanyl-2-(difluoromethoxy)phenyl]-1-[[1-[1-[rac-(3R)-tetrahydrofuran-3-yl]-4-piperidyl]triazol-4-yl]methyl]pyrazol-4-yl]pyrazolo[1,5-a]pyrimidine-3-carboxamide] | 0.29 | 0.4 | 13
CC(C)Sc1ccc(OC(F)F)c(-c2nn(Cc3cn(C4CCN([C@@H]5CCOC5)CC4)nn3)cc2NC(=O)c2cnn3cccnc23)c1 (stereo in doubt) [Example 12, N-[3-[2-(difluoromethoxy)-5-isopropylsulfanyl-phenyl]-1-[[1-[1-[rac-(3R)-tetrahydrofuran-3-yl]-4-piperidyl]triazol-4-yl]methyl]pyrazol-4-yl]pyrazolo[1,5-a]pyrimidine-3-carboxamide; formic acid] | 0.46 | 0.64 | 22
O=C(Nc1c[nH]nc1-c1cc(SC(F)F)ccc1OC(F)F)c1cnn2cccnc12 [Example 30, N-[3-[2-(difluoromethoxy)-5-(difluoromethylsulfanyl)phenyl]-1H-pyrazol-4-yl]pyrazolo[1,5-a]pyrimidine-3-carboxamide] | 0.09 | 0.16 | 5
O=C(Nc1c[nH]nc1-c1cc(SC2CCC2)ccc1OC(F)F)c1cnn2cccnc12 [Example 9, N-[3-[5-cyclobutylsulfanyl-2-(difluoromethoxy)phenyl]-1H-pyrazol-4-yl]pyrazolo[1,5-a]pyrimidine-3-carboxamide] | 0.14 | 0.23 | 7
CN(C)C(=O)Cn1cc(NC(=O)c2cnn3cccnc23)c(-c2cc(SC3COC3)ccc2OC(F)F)n1 [Example 26, N-[3-[2-(difluoromethoxy)-5-(oxetan-3-ylsulfanyl)phenyl]-1-[2-(dimethylamino)-2-oxo-ethyl]pyrazol-4-yl]pyrazolo[1,5-a]pyrimidine-3-carboxamide] | 0.93 | 0.32 | 34

Continued by falling Ki [2], values first:

Ki [2] [nM] | Ki [3] [nM] | SMILES | IC50 [1] [nM]
0.55 | 0.35 | CSc1ccc(OC(F)F)c(-c2nn(CC(=O)N3CCC(O)CC3)cc2NC(=O)c2cnn3cccnc23)c1 [Example 23, N-[3-[2-(difluoromethoxy)-5-methylsulfanyl-phenyl]-1-[2-(4-hydroxy-1-piperidyl)-2-oxo-ethyl]pyrazol-4-yl]pyrazolo[1,5-a]pyrimidine-3-carboxamide] | 47
0.48 | 0.36 | CSc1ccc(OC(F)F)c(-c2nn(CC(C)(C)O)cc2NC(=O)c2cnn3cccnc23)c1 [Example 19, N-[3-[2-(difluoromethoxy)-5-methylsulfanyl-phenyl]-1-(2-hydroxy-2-methyl-propyl)pyrazol-4-yl]pyrazolo[1,5-a]pyrimidine-3-carboxamide] | 15
0.24 | 0.17 | CSc1ccc(OC(F)F)c(-c2nn(CC(=O)N(C)C)cc2NC(=O)c2cnn3cccnc23)c1 [Example 44] | 10
0.21 | 0.5 | O=C(Nc1c[nH]nc1-c1cc(SC(F)(F)F)ccc1OC(F)F)c1cnn2cccnc12 [Example 5, N-[3-[2-(difluoromethoxy)-5-(trifluoromethylsulfanyl)phenyl]-1H-pyrazol-4-yl]pyrazolo[1,5-a]pyrimidine-3-carboxamide] | 6
0.15 | 0.23 | CC(CO)Sc1ccc(OC(F)F)c(-c2n[nH]cc2NC(=O)c2cnn3cccnc23)c1 (stereo not drawn) [Example 4, N-[3-[2-(difluoromethoxy)-5-(2-hydroxy-1-methyl-ethyl)sulfanyl-phenyl]-1H-pyrazol-4-yl]pyrazolo[1,5-a]pyrimidine-3-carboxamide] | 35
